Legend:
[1] = tested on: MDA-MB-231 cells; experiment: Cell validation: cytotoxicity in MDA-MB-231 cells (CellTiter-Glo); format: cell-based
In short: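 MDA-MB-231 cells were seeded at 2000 cells/well and exposed to compounds for the specified number of days. Medium was then replaced with a 1:1 CellTiter-Glo reagent/serum-supplemented DMEM mix for 10 min, and viability was read as luminescence, proportional to living cell number.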

[2] = tested on: 4T1 R4 cells; experiment: Cell viability assay, 4T1 R4 cells; format: cell-based, mouse; details: with 400 nM paclitaxel, 72 hr
Method: MCF-7, MDA-MB-231, MDA-MB-468, Hs578T, 4T1, and HeLa cell lines stably expressing H2B-mCherry and eGFP-tubulin (kindly provided by Dr. Anthony A. Hyman, Max-Planck-Institute for Molecular Cell Biology and Genetics, Dresden, Germany) were cultured in high-glucose Dulbecco's Modified Eagle Medium (DMEM). SK-BR-3 cells were cultured in McCoy's Modified 5a Medium. Hs578T cells were cultured in high-glucose DMEM supplemented with an additional 0.01 mg/mL bovine insulin. […] All mentioned media were supplemented with 10% fetal bovine serum (Gibco) and 1% Penicillin/Streptomycin (Corning), and cells were incubated at 37° C. in a humidified atmosphere containing 5% CO2. HEK293 cells were cultured in HE300 medium (GMEP incorporated, Japan) and maintained in suspension culture with 125 rpm and 8% CO2.
The cancer cells were cultured in a 96-well plate at a confluence of 1000-2000 cells/well with indicated drugs for specific days. When the time was up, the culture medium in the plate was aspirated and replaced with a prepared CellTiter-Glo reagent/DMEM mixture (1:1 mix of CellTiter-Glo reagent and serum-supplemented DMEM). After incubation for 10 min, the luminescence (proportional to the number of living cells) was measured with an ELISA plate reader to determine the cell viability.

[3] = target: T1, KIF2C and tubulin (Homo sapiens, UniProt Q99661); experiment: KIF2C-tubulin affinity pull-down assay; format: binding
T1 construct: KIF2C (216-598 a.a.); made in house; host or cells: E. coli BL21 (DE3), pET-28a (KIF2C); tubulin from porcine brain (Cytoskeleton) or HEK293 cells
Method: The mixture was subjected to KIF2C pull-down with 50 μL of pre-equilibrated Ni-NTA resin. Residual tubulin that remained interacting with KIF2C was resolved by SDS-PAGE followed by Coomassie brilliant blue staining or western blotting.

[4] = tested on: HeLa cells expressing H2B-mCherry and eGFP-tubulin; experiment: Live-cell imaging of intracellular microtubule distribution; format: cell-based
Method: For the microtubule distribution analysis, HeLa cell line stably expressing H2B-mCherry and eGFP-tubulin (a kind gift from Anthony A. Hyman, Max-Planck-Institute for Molecular Cell Biology and Genetics, Dresden, Germany) were treated with KIF2C inhibitors (10 μM DHTP or 10 μM 7S9) during imaging. Live-cell imaging was conducted on a Nikon T1 inverted fluorescence microscope (Nikon) with a 60× oil objective (Nikon), a Prime camera (Photometrics), and 37° C., 5% CO2 heat stage (Live Cell Instrument). Microtubule morphological changes were imaged at 3-min intervals. Images were obtained using ImageJ software processed with Gaussian Blur to remove the noise.

[5] = tested on: 4T1 S1 cells; experiment: Colony formation assay, 4T1 S1 cells; format: cell-based, mouse; details: 1 μM 7S9 with 400 nM paclitaxel
Method: (§1) To assess the long-term survival of breast cancer cell lines following the treatment of KIF2C knockdown or inhibition, the cells trypsinized into single-cell suspension were homogeneously seeded in 6-well cell culture plates at a density of 5000 cells per dish, supplemented with 2× complete medium (50% 4×DMEM, 20% FBS, 2% penicillin-streptomycin, ddH2O, and 2× glutaMAX™), agarose (0.6% for bottom agar layer; 0.3% for top cell layer), ddH2O, and DMEM. After incubation for 24 hr, cells were treated with indicated drugs, such as DMSO, KIF2C inhibitors, or chemotherapy drugs, and then cultured at 37° C. incubator in an atmosphere of humidified air with 5% CO2 for a further 14-30 days. When the cell colonies grew to appropriate sizes, the culture mediums were replaced with PBS for washing. After that, the plates were stained with 10% crystal violet and analyzed using Image J.

[6] = tested on: 4T1 R4 cells; experiment: Colony formation assay, 4T1 R4 cells; format: cell-based, mouse; details: 1 μM 7S9 with 400 nM paclitaxel
Method: as §1

[7] = tested on: 4T1 R8 cells; experiment: Colony formation assay, 4T1 R8 cells; format: cell-based, mouse; details: 1 μM 7S9 with 400 nM paclitaxel
Method: as §1

[8] = tested on: 4T1 R4; experiment: In vivo tumor growth inhibition, 4T1 R4 syngeneic model; set-up: species or system mouse; details: R4 tumors, BALB/c mice
Method: The mice were housed at the National Health Research Institute (NHRI) Animal Center in accordance with the Institutional Animal Care and Use Committee procedures and guidelines. The 4T1-derived cells, including 4T1, 4T1 R4, and 4T1 R8, used for implantation were harvested during log phase growth and resuspended in phosphate-buffered saline. Each mouse was injected s.c. in the right flank with 5×10^5 cells. After tumor size reached 60-100 mm 3 (D1), mice were divided into groups and received treatment with vehicle or different compounds alone or in combinations. Tumor size, in mm 3, was measured twice per week and calculated from Tumor volume=(w 2×1)/2, where w=width and 1=length in mm of the tumor. The values of tumor size were expressed as mean±SEM.

T1 sequence (Q99661 216-598): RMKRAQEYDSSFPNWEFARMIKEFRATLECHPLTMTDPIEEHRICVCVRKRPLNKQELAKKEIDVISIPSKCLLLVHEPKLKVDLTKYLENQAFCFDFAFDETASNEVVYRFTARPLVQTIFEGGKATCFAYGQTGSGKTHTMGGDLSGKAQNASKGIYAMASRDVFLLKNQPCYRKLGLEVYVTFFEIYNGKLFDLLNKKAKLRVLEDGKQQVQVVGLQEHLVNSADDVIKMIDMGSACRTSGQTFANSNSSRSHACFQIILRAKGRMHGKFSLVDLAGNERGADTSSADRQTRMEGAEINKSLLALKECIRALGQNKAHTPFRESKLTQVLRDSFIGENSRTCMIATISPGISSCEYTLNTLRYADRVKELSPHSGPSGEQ

SMILES: CCN1CCN(C(=O)COc2ccc(/C=c3\sc4n(c3=O)C(c3ccc(Cl)cc3)C(C(=O)OC(C)C)=C(C)N=4)cc2)CC1.O=C(O)/C=C\C(=O)O (stereo not shown) [7S9 (133), isopropyl (Z)-5-(4-chlorophenyl)-2-(4-(2-(4-ethylpiperazin-1-yl)-2-oxoethoxy)benzylidene)-7-methyl-3-oxo-2,3-dihydro-5H-thiazolo[3,2-a]pyrimidine-6-carboxylate maleate]
- cytotoxicity on MDA-MB-231 cells (in words) ([1]; 72 hr): showed cytotoxicity
- Cell validation (IC50) ([1]; cytotoxicity in MDA-MB-231 cells): + + +
- fold increase of cell sensitivity to 7S9 by paclitaxel [2]: 10.5 fold
- molecular interaction between KIF2C and tubulin (in words) [3]: increased by 7S9 in a dose-dependent manner
- intracellular microtubule distribution phenotype (in words) [4]: puncta formation of tubulins in the cytoplasm
- colony formation, combined treatment (in words) [5]: did not further suppress colony formation
- colony formation, combined treatment (in words) [6]: suppression of colony formation was detected only with combined treatment of 7S9 and paclitaxel
- colony formation, combined treatment (in words) [7]: suppression of colony formation was detected only with combined treatment of 7S9 and paclitaxel
- tumor growth inhibition ([8]; 7S9 50 mg/kg intraperitoneally, 5on/2off two cycles): 29%
- tumor growth inhibition, combination ([8]; 7S9 50 mg/kg with paclitaxel 15 mg/kg): 70.2%
